Among the data in patent US20260022096A1, “NOVEL SULFONAMIDES AND THEIR USE AS NEUROPROTECTIVE AND/OR NEURORESTORATIVE AGENTS” (GENECODE, priority 2022, published 2026) are EC50 values, retold here.

Where only a bound is given, the exact number is not on record here.

This test concerns the target T1, GFRα1-RET (Homo sapiens, UniProt P56159).
T1 construct: expressed in transfected cells; host or cells: MG87 murine fibroblasts, stably transfected
T1 sequence (P56159 25-429 limits assumed): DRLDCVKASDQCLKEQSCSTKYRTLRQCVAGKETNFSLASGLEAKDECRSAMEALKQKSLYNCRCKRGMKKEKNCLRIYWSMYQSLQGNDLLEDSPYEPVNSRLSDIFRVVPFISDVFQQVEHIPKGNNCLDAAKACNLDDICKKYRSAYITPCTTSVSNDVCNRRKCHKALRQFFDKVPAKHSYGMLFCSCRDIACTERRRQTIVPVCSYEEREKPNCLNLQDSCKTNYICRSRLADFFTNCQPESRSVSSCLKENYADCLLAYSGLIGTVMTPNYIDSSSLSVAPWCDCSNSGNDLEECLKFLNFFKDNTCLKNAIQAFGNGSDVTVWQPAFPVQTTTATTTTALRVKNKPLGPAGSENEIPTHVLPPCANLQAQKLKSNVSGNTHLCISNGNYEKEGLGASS
Briefly: Elk1 reporter-gene (luciferase) assay in cells expressing GFRα1-RET. To be noted: MG87 murine fibroblasts stably transfected with PathDetect Elk-1, GFRα1 and RET, 6 concentrations, agonist/activator activity. It counts as cell-based. The method, then: For ECso determination, a dose-response test was performed using 6 concentrations of each tested compound. Dose-response curves were fitted using the sigmoidal dose-response (variable slope) analysis in GraphPad Prism program (Graph Pad Inc) and ECso of agonist/activator activity was calculated. Dose-response experiments were all performed in duplicate, two times independently.
For orientation: EC50 means the concentration needed to bring the measured effect to its halfway point. A lower EC50 goes with higher potency in that assay. `CCCN(C)S(=O)(=O)c1ccc(OC)c(N2CCN(C(=O)c3ccc(F)cc3Cl)CC2C)c1` (racemic) [compound 001, 4-methoxy-N-methyl-N-propyl-3-[rac-(2S)-4-(2-chloro-4-fluoro-benzoyl)-2-methyl-piperazin-1-yl]benzenesulfonamide] had an EC50 of 1 to 10 µM.
Consider `COc1ccc(S(=O)(=O)N2CCCC(Cc3ccccc3)C2)cc1N1C2CCC1CN(C(=O)c1ccc(F)cc1Cl)C2` (racemic) [compound 011, [(1S,5R)-8-[5-[[(3RS)-3-benzyl-1-piperidyl]sulfonyl]-2-methoxy-phenyl]-3,8-diazabicyclo[3.2.1]]octan-3-yl]-(2-chloro-4-fluoro-phenyl)methanone], for which the EC50 was less than 1 µM.
As to `CCCN(C)S(=O)(=O)c1ccc(OC)c(N2CCN(C(=O)c3ccc(F)cc3C(F)(F)F)CC2C(F)(F)F)c1` (racemic) [compound 016, 4-methoxy-N-methyl-N-propyl-3-[rac-(2S)-4-[4-fluoro-2-(trifluoromethyl)benzoyl]-2-(trifluoromethyl)piperazin-1-yl]benzenesulfonamide], the EC50 is 1 to 10 µM.
The result for `CCCN(C)S(=O)(=O)c1ccc(OC)c(N2CCN(C(=O)c3ccc(F)cc3C(F)(F)F)CC2CC)c1` (racemic) [compound 017, 4-methoxy-N-methyl-N-propyl-3-[rac-(2S)-2-ethyl-4-[4-fluoro-2-(trifluoromethyl)benzoyl]piperazin-1-yl]benzenesulfonamide] reads 10 to 50 µM; that for `COc1ccc(S(=O)(=O)N2CCC(Cc3ccccc3)CC2)cc1N1CCN(C(=O)c2ccc(F)cc2C(F)(F)F)CC1C` (racemic) [compound 018, [4-fluoro-2-(trifluoromethyl)phenyl]-[rac-(3S)-4-[5-[(4-benzyl-1-piperidyl)sulfonyl]-2-methoxy-phenyl]-3-methyl-piperazin-1-yl]methanone], 1 to 10 µM.
The result for `COc1ccc(S(=O)(=O)N2CCC(Cc3ccccc3)CC2)cc1N1CCN(C(=O)c2ccc(F)cc2Cl)CC1C` (racemic) [compound 019, (2-chloro-4-fluoro-phenyl)-[rac-(3S)-4-[5-[(4-benzyl-1-piperidyl)sulfonyl]-2-methoxy-phenyl]-3-methyl-piperazin-1-yl]methanone] reads less than 1 µM; that for `COc1ccc(S(=O)(=O)NC(C)(C)C)cc1N1CCN(C(=O)c2ccc(F)cc2Cl)CC1C` (racemic) [compound 020, N-tert-butyl-4-methoxy-3-[rac-(2S)-4-(2-chloro-4-fluoro-benzoyl)-2-methyl-piperazin-1-yl]benzenesulfonamide], 10 to 50 µM; that for `CCCN(C)S(=O)(=O)c1ccc(OC)c(N2CCN(C(=O)c3ccc(F)cc3C(F)(F)F)CC2C)c1` (racemic) [compound 021, 4-methoxy-N-methyl-N-propyl-3-[rac-(2S)-4-[4-fluoro-2-(trifluoromethyl)benzoyl]-2-methyl-piperazin-1-yl]benzenesulfonamide], 1 to 10 µM.
The result for `CCCN(C)S(=O)(=O)c1ccc(OC)c(N2CCN(C(=O)c3ccc(F)cc3C(F)(F)F)CC2COC)c1` (racemic) [compound 022, 4-methoxy-N-methyl-N-propyl-3-[rac-(2R)-4-[4-fluoro-2-(trifluoromethyl)benzoyl]-2-(methoxymethyl)piperazin-1-yl]benzenesulfonamide] reads 10 to 50 µM.
Take `COc1ccc(S(=O)(=O)N2CCC(Cc3ccccc3)CC2)cc1N1C2CCC1CN(C(=O)c1ccc(F)cc1Cl)C2` (racemic) [compound 025, (2-chloro-4-fluoro-phenyl)-[rac-(1S,5S)-8-[5-[(4-benzyl-1-piperidyl)sulfonyl]-2-methoxy-phenyl]-3,8-diazabicyclo[3.2.1]]octan-3-yl]methanone]: the EC50 was 1 to 10 µM.
As for `COc1ccc(S(=O)(=O)N2CCC(OCc3ccccc3)C2)cc1N1C2CCC1CN(C(=O)c1ccc(F)cc1Cl)C2` (racemic) [compound 037, [(1S,5R)-8-[5-[(3SR)-3-benzyloxypyrrolidin-1-yl]sulfonyl-2-methoxy-phenyl]-3,8-diazabicyclo[3.2.1]octan-3-yl]-(2-chloro-4-fluoro-phenyl)methanone], the figure is 1 to 10 µM.
Turning to `COc1ccc(S(=O)(=O)N(C)CCCF)cc1N1CCN(C(=O)c2ccc(F)cc2Cl)CC1C` (racemic) [compound 038, N-(3-fluoropropyl)-4-methoxy-N-methyl-3-[rac-(2S)-4-(2-chloro-4-fluoro-benzoyl)-2-methyl-piperazin-1-yl]benzenesulfonamide], the EC50 lay within 1 to 10 µM.
As for `COc1ccc(S(=O)(=O)N2CCN([C@H]3C[C@@H]3c3ccc(F)cc3)CC2)cc1N1[C@@H]2CC[C@H]1CN(C(=O)c1ccc(F)cc1Cl)C2` (racemic) [compound 044, (2-chloro-4-fluoro-phenyl)-[(1S,5R)-8-[5-[4-[(1SR,2RS)-2-(4-fluorophenyl)cyclopropyl]piperazin-1-yl]sulfonyl-2-methoxy-phenyl]-3,8-diazabicyclo[3.2.1]octan-3-yl]methanone], the figure is less than 1 µM; as for `COc1ccc(S(=O)(=O)N2CCN(CC(C)c3ccc(F)cc3)CC2)cc1N1C2CCC1CN(C(=O)c1ccc(F)cc1Cl)C2` (racemic) [compound 045, (2-chloro-4-fluoro-phenyl)-[(1S,5R)-8-[5-[4-[(2RS)-2-(4-fluorophenyl)propyl]piperazin-1-yl]sulfonyl-2-methoxy-phenyl]-3,8-diazabicyclo[3.2.1]octan-3-yl]methanone], less than 1 µM.
Consider `COc1ccc(S(=O)(=O)N2CCN(CC(C)c3ccccc3)CC2)cc1N1C2CCC1CN(C(=O)c1ccc(F)cc1Cl)C2` (racemic) [compound 047, (2-chloro-4-fluoro-phenyl)-[(1S,5R)-8-[2-methoxy-5-[4-[(2RS)-2-phenylpropyl]piperazin-1-yl]sulfonyl-phenyl]-3,8-diazabicyclo[3.2.1]octan-3-yl]methanone], for which the concentration giving a half-maximal response (EC50) was less than 1 µM.
Molecule `CC(NS(=O)(=O)c1cc(Cl)c(O)c(N2C3CCC2CN(C(=O)c2ccc(F)cc2Cl)C3)c1)C(F)(F)F` (racemic) [compound 104, 3-chloro-5-[(1S,5R)-3-(2-chloro-4-fluoro-benzoyl)-3,8-diazabicyclo[3.2.1]octan-8-yl]-4-hydroxy-N-[(1SR)-2,2,2-trifluoro-1-methyl-ethyl]benzenesulfonamide] had an EC50 of 1 to 10 µM.
As for `COc1ccc(S(=O)(=O)N2CCC(Oc3ccccc3)C2)cc1N1C2CCC1CN(C(=O)c1ccc(F)cc1Cl)C2` (racemic) [compound 126, (2-chloro-4-fluoro-phenyl)-[(1S,5R)-8-[2-methoxy-5-[(3SR)-3-phenoxypyrrolidin-1-yl]sulfonyl-phenyl]-3,8-diazabicyclo[3.2.1]octan-3-yl]methanone], the figure is less than 1 µM; as for `COc1ccc(S(=O)(=O)N2CCC(N(C)c3ccccc3)C2)cc1N1C2CCC1CN(C(=O)c1ccc(F)cc1Cl)C2` (racemic) [compound 127, (2-chloro-4-fluoro-phenyl)-[(1S,5R)-8-[2-methoxy-5-[(3SR)-3-(N-methylanilino)pyrrolidin-1-yl]sulfonyl-phenyl]-3,8-diazabicyclo[3.2.1]octan-3-yl]methanone], less than 1 µM.
